According to article PMC9737648, “Novel Approaches for the Solid-Phase Synthesis of Dihydroquinazoline-2(1H)-One Derivatives and Biological Evaluation as Potential Anticancer Agents” (Molecules, 2022):

How the values were obtained:
[1] = system: human liver cancer cells (HepG-2); assay: MTT cytotoxicity assay, HepG-2; assay type: cell-based; settings: Homo sapiens, HepG2, 72 h, 72-h incubation
Description: (§1) The above cells were tested for cytotoxicity to identify the most promising antitumor drug among the synthesized quinazolinone derivatives.
(§2) An MTT assay was used to evaluate the in vitro cytotoxicity of the new compounds. The MTT assay depends on the reduction of soluble 3-([…])-2,5-diphenyl-tetrazolium bromide (MTT) into a blue purple formazan product, mainly by mitochondrial reductase activity inside living cells. […] The cells were suspended in growth medium and plated in 96-well culture plates at a density of 4 × 10^4 cells/well and incubated at 37 °C in a 5% CO2 incubator. […] Each experiment was performed at least 3 times.

[2] = system: breast cancer cells (MDA-MB-231); assay: MTT cytotoxicity assay, MDA-MB-231; assay type: cell-based, human; settings: Homo sapiens, 72-h incubation
Description: as §1, §2

[3] = system: ovarian cancer cells (A2780); assay: MTT cytotoxicity assay, A2780; assay type: cell-based, human; settings: Homo sapiens, A2780, 72 h, 72-h incubation
Description: as §1, §2

[4] = system: human hepatic stellate cells (LX-2); assay: MTT cytotoxicity assay, LX-2 normal control; assay type: cell-based; settings: Homo sapiens, 72-h incubation
Description: as §1, §2

[5] = DPPH• free radical scavenging assay; settings: concentration required to scavenge 50% of the DPPH; 30 min in the dark
Description: The quinazolinone derivatives were evaluated for their free radical scavenging activity at 320, 160, 80, 40, 20, and 10 µM concentration using the DPPH radical method, with ascorbic acid as the positive control (Table 3).
The antiradical activity of the compounds was estimated according to a slight modification of the procedure reported by Morales and Jimenez-Perez. […] Each sample (100 μL) at a different concentration was added to a freshly prepared solution of 1,1-diphenyl-2-picrylhydrazyl (DPPH•) radical (0.2 mM, 100 μL). The mixtures (200 μL) were placed in a 96-well microplate, shaken vigorously, and then left to stand for 30 min in the dark. Then, absorbance was immediately measured at a wavelength of 517 nm. Vc was used as the standard. The antiradical activity for each compound was determined in the Vc equivalent antioxidant capacity. The DPPH• solution in the presence of ethanol and in the absence of compounds was tested and used as a negative control. […] In all experiments, the samples were analyzed in triplicate, and activity for each compound was presented as the mean value ± SEM and used for evaluation of structure–activity relationships. […] Absorbance was taken at 520 nm using a microplate reader (Tecan, Männedorf, Switzerland).

For `CN1C(=O)NC(CC(N)=O)c2cc(NC(=O)c3cccnc3)ccc21` (centres unmarked) [CA6-a, N-[4-(2-amino-2-oxoethyl)-1-methyl-2-oxo-1,2,3,4-tetrahydroquinazolin-6-yl]nicotinamide], the IC50 [1] was greater than 100 µM, the IC50 [2] was greater than 100 µM and the IC50 [3] was greater than 100 µM. For the same compound, the IC50 [4] was greater than 100 µM and the IC50 [5] was greater than 1000 µM.
`CN1C(=O)NC(CC(N)=O)c2cc(NC(=O)COc3ccccc3)ccc21` (centres unmarked) [CA6-b, N-[4-(2-amino-2-oxoethyl)-1-methyl-2-oxo-1,2,3,4-tetrahydroquinazolin-6-yl]-2-phenoxyacetamide] showed an IC50 [1] of 88 ± 1.39 µM, an IC50 [2] greater than 100 µM and an IC50 [3] greater than 100 µM. The IC50 [4] was greater than 100 µM and the IC50 [5] was greater than 1000 µM.
`COc1ccccc1S(=O)(=O)Nc1ccc2c(c1)C(CC(N)=O)NC(=O)N2C` (centres unmarked) [CA7-a, 2-{6-[(2-methoxyphenyl)sulfonamido]-1-methyl-2-oxo-1,2,3,4-tetrahydroquinazolin-4-yl}acetamide] showed an IC50 [1] of 86.4 ± 3.42 µM, an IC50 [2] of 87.7 ± 2.58 µM and an IC50 [3] of 82.9 ± 2.68 µM. It also gave an IC50 [4] greater than 100 µM and an IC50 [5] greater than 1000 µM.
For `CN1C(=O)N(S(=O)(=O)c2ccccc2F)C(CC(N)=O)c2cc(NS(=O)(=O)c3ccccc3F)ccc21` (centres unmarked) [CA7-b′, 2-{6-[(2-fluorophenyl)sulfonamido]-3-[(2-fluorophenyl)sulfonyl]-1-methyl-2-oxo-1,2,3,4-tetrahydroquinazolin-4-yl}acetamide], the IC50 [1] was 95.3 ± 5.47 µM, the IC50 [2] was greater than 100 µM and the IC50 [3] was greater than 100 µM. The IC50 [4] was greater than 100 µM and the IC50 [5] was greater than 1000 µM.
